{"source": "patent US20130146496A1", "about": "“SOLID PHARMACEUTICAL FORMULATIONS OF RAMIPRIL AND AMLODIPINE BESYLATE, AND THEIR PREPARATION” (priority 2010, published 2013)", "origin": "cited, not measured here", "key": {"[1]": {"details": "in vivo"}}, "data": [{"smiles": "CCOC(=O)C1=C(COCCN)NC(C)=C(C(=O)OC)C1c1ccccc1Cl", "note": "(racemic) [Amlodipine besylate, 3-ethyl-5-methyl-(+-)-2-[(2-aminoethoxy)methyl]-4-(2-chlorophenyl)-1,4-dihydro-6-methylpyridine-3,5-dicarboxylate]", "values": [{"measurement": "absolute bioavailability", "setting": "[1]", "result": "64-90%"}, {"measurement": "solubility in water", "result": "slightly soluble"}]}]}
